# Assay results: patent US9873883B2, “Glyphosate resistant plants and associated methods” (Dow AgroSciences LLC, priority 2012, dated 2018)
# Legend:
# [1] = test system: Arabidopsis transformed with TraP8 v2::dgt-14 (pDAB105526); assay: Postemergence glyphosate tolerance, visual injury; assay type: in vivo, Arabidopsis thaliana; details: for Visual % injury (Ave): 2 weeks after application
# Text: (§1) Transgenic T1 Arabidopsis plants containing the dgt-14 transgene were sprayed with differing rates of glyphosate. A distribution of varying concentrations of glyphosate rates, including elevated rates, were applied in this study to determine the relative levels of resistance (105, 420, 1,680 or 3,360 g ae/ha). The typical 1× field usage rate of glyphosate is 1,120 g ae/ha. The T1 Arabidopsis plants that were used in this study were variable in copy number for the dgt-14 transgene. The low copy dgt-14 T1 Arabidopsis plants were identified using the molecular confirmation assays described above, and self-pollinated and used to produce T2 plants.
# (§2) The Arabidopsis T1 transformants were first selected from the background of untransformed seed using a glufosinate selection scheme. Three flats or 30,000 seed were analyzed for each T1 construct. The T1 plants selected above were molecularly characterized and the plants were subsequently transplanted to individual pots and sprayed with various rates of commercial glyphosate as previously described. The dose response of these plants is presented in terms of % visual injury 2 weeks after treatment (WAT). […] An arithmetic mean and standard deviation is presented for each construct used for Arabidopsis transformation. The range in individual response is also indicated in the last column for each rate and transformation. Wildtype, non-transformed Arabidopsis (c.v. Columbia) served as a glyphosate sensitive control.
# (§3) Selected T1 Arabidopsis plants which were identified to contain low-copy numbers of transgene insertions (1-3 copies) were self-fertilized to produce a second generation for additional assessment of glyphosate tolerance. […] In the T2 generation hemizygous and homozygous plants were available for testing for each event and therefore were included for each rate of glyphosate tested. Hemizygous plants contain two different alleles at a locus as compared to homozygous plants which contain the same two alleles at a locus. The copy number and ploidy levels of the T2 plants were confirmed using the molecular analysis protocols previously described. Likewise, glyphosate was applied using the methods and rates as previously described. The dose response of the plants is presented in terms of % visual injury 2 weeks after treatment (WAT). […] An arithmetic mean and standard deviation are presented for each construct used for Arabidopsis transformation. The range in individual response is also indicated in the last column for each rate and transformation. Wildtype, non-transformed Arabidopsis (cv. Columbia) served as a glyphosate sensitive control. In addition, plants comprising a glyphosate herbicide resistance gene, dgt-1 (as described in U.S. patent Ser. No. 12/558,351, incorporated herein by reference in its entirety) were included as a positive control.
# (§4) Randomly selected T2 Arabidopsis plants which were identified to contain low-copy numbers of transgene insertions (1-3 copies) were self-fertilized to produce a third generation for additional assessment of glyphosate tolerance. Arabidopsis seed from the third generation (T3) were planted and evaluated for glyphosate tolerance using the same protocols as previously described. […] These Events were assayed via LC-MS-MS to confirm that the plants expressed the DGT-14 protein. […] Exemplary resistant T3 Events comprised dgt-14 linked with TraP8 v2 (pDAB105526), TraP9 v2 (pDAB105527), TraP12 v2 (pDAB105528) and TraP13 v2 (pDAB105529).
# [2] = test system: Arabidopsis transformed with TraP5 v2::dgt-14 (pDAB105525); assay: Postemergence glyphosate tolerance, visual injury; assay type: in vivo, Arabidopsis thaliana; details: 2 weeks after application
# Text: as §1, §2, §3, §4
smiles,measurement,setting,value
"O=C(O)CNCP(=O)(O)O [glyphosate, N-(phosphonomethyl)glycine]",Visual % injury (Ave),"[1]; T1, 105 g ae/ha",40.0%
same,Visual % injury (Ave),"[1]; T1, 420 g ae/ha",23.8%
same,Visual % injury (Ave),"[1]; T1, 1680 g ae/ha",66.3%
same,Visual % injury (Ave),"[1]; T1, 3360 g ae/ha",26.5%
same,Visual % injury (Ave),"[1]; T2, 420 g ae/ha",0.5%
same,Visual % injury (Ave),"[1]; T2, 840 g ae/ha",0.0%
same,Visual % injury (Ave),"[1]; T2, 1680 g ae/ha",2.5%
same,Visual % injury (Ave),"[1]; T2, 3360 g ae/ha",5.0%
same,injury range,"[1]; T2, all concentrations of glyphosate tested",less than 20%
same,Visual % injury (Ave),"[1]; T3, 420 g ae/ha",0.0%
same,Visual % injury (Ave),"[1]; T3, 840 g ae/ha",1.3%
same,Visual % injury (Ave),"[1]; T3, 1680 g ae/ha",0.0%
same,Visual % injury (Ave),"[1]; T3, 3360 g ae/ha",4.0%
same,injury range,"[1]; T3, all concentrations of glyphosate tested",less than 20%
same,Visual % injury (Ave),"[2]; T1, 105 g ae/ha",93.0%
same,Visual % injury (Ave),"[2]; T1, 420 g ae/ha",98.6%
same,Visual % injury (Ave),"[2]; T1, 1680 g ae/ha",98.0%
same,Visual % injury (Ave),"[2]; T1, 3360 g ae/ha",96.0%
same,Visual % injury (Ave),"[2]; T2, 420 g ae/ha",86.3%
same,Visual % injury (Ave),"[2]; T2, 1680 g ae/ha",90.0%
same,Visual % injury (Ave),"[2]; T2, 3360 g ae/ha",97.0%
same,Visual % injury (Ave),"[2]; T3, 420 g ae/ha",93.3%
same,Visual % injury (Ave),"[2]; T3, 1680 g ae/ha",93.0%
same,Visual % injury (Ave),"[2]; T3, 3360 g ae/ha",91.7%
